Residues, ends and D or L forms follow the SMILES beside them.
Test system: A549
Experiment: Antiproliferative against human A549 cells assessed as viable cells pretreated with MS023 for 24 hrs followed by compound addition at 10 uM measured after for 24 hrs relative to control
Conditions: A549, 24 h, read-out: Activity

SMILES	viability at 10 µM [%]
O=C(O)c1ccc(O)c2ncccc12	54.2
Cc1cnc(Nc2ccc(N3CCN(C)CC3)cc2)nc1Nc1cccc(S(=O)(=O)NC(C)(C)C)c1	54.2
COc1cc2c(Nc3ccc(NC(=O)c4ccccc4)cc3)ncnc2cc1OCCCN1CCOCC1	54.2
CC(C)N(CCCNC(=O)Nc1ccc(C(C)(C)C)cc1)C[C@H]1O[C@@H](n2ccc3c(N)ncnc32)[C@H](O)[C@@H]1O	54.2
Cc1cc(Nc2ccc(NC(=O)c3ccc(Nc4ccnc5ccccc45)cc3)cc2)nc(N)n1	54.2
C[C@H](NC(=O)CCc1nc2ccccc2c(=O)[nH]1)c1ccccc1	54.2
C/C(=N\NC(=O)c1cccc(S(=O)(=O)N2CCOCC2)c1)c1cc(Cl)ccc1O	54.2
COc1cc2nc(N3CCCC3)nc(NCCCCCN3CCCC3)c2cc1OC	54.2
CCC(CC)n1ccc2c(C(=O)NCc3c(C)cc(C)[nH]c3=O)cc(C#N)cc21	54.2
Cn1c(/C=C/C(=O)NO)ccc1/C=C/C(=O)c1cccc(F)c1	54.2
O=C(NCC(=O)N1CCCC1)Nc1ccc2cnccc2c1	54.2
Nc1cc(F)ccc1NC(=O)/C=C/c1cnn(C/C=C/c2ccccc2)c1	54.2
O=C(Nc1ccc(-c2ccnc(Nc3ccc(N4CCOCC4)cc3)n2)cc1)[C@@H]1CCCN1	54.2
O=C(Nc1ccccc1-c1cn2c(CN3CCNCC3)csc2n1)c1cnc2ccccc2n1	54.2
O=C([C@@H](Cc1cccc(C(F)(F)F)c1)NS(=O)(=O)c1cc(F)c2c(c1)CCNC2)N1CCCC1	54.2
N#C/C(=C\c1ccc(O)c(O)c1)C(=O)NCc1ccccc1	54.2
CNNCc1ccc(C(=O)NC(C)C)cc1	54.2
CN1CCCN(C(=O)c2cccc(-c3ccc(/C=C4/C(=O)Nc5ccc(Cl)cc54)o3)c2)CC1	54.2
CCn1c2ccccc2c2cc(CNCc3ccccc3OC)ccc21	54.2
O=C(CCCCCN1C(=O)c2cccc3cccc(c23)C1=O)NO	54.2
CC(C)C[C@H](NC(=O)[C@H](Cc1ccccc1)NC(=O)[C@H](CCC(N)=O)NC(=O)[C@H](Cc1ccc(O)cc1)NC(=O)[C@H](C)NC(=O)CNC(=O)[C@H](CCCCN)NC(=O)[C@H](Cc1c[nH]c2ccccc12)NC(=O)[C@@H](NC(=O)[C@H](Cc1c[nH]c2ccccc12)NC(=O)[C@H](CCCCN)NC(=O)CNC(=O)[C@H](CC(N)=O)NC(=O)[C@H](CCC(=O)O)NC(=O)[C@H](Cc1c[nH]c2ccccc12)NC(=O)[C@@H](NC(=O)[C@H](Cc1c[nH]c2ccccc12)NC(=O)[C@H](CO)NC(=O)CNC(=O)[C@@H]1CCCN1C(=O)[C@H](Cc1c[nH]c2ccccc12)NC(=O)[C@H](CCC(N)=O)NC(=O)[C@H](Cc1ccccc1)NC(=O)CNC(=O)[C@@H](N)Cc1cnc[nH]1)[C@@H](C)O)[C@@H](C)O)C(=O)N[C@@H](CCCCN)C(=O)NCC(=O)NCC(=O)NCC(=O)NCC(=O)N[C@@H](CO)C(=O)N[C@@H](CCCNC(=N)N)C(=O)N[C@@H](CCCNC(=N)N)C(=O)N[C@@H](CCCNC(=N)N)C(=O)N[C@@H](CCCNC(=N)N)C(=O)N[C@@H](CCCNC(=N)N)C(=O)N[C@@H](CCCNC(=N)N)C(=O)N[C@@H](CCCNC(=N)N)C(=O)N[C@@H](CCCNC(=N)N)C(=O)N[C@@H](CCCNC(=N)N)C(=O)O (H-HGFQWPGSWTWENGKWTWKGAYQFLKGGGGSRRRRRRRRR-OH)	54.2
COc1cc2c(cc1O)CC[C@@H]1[C@@H]2CC[C@]2(C)[C@@H](O)CC[C@@H]12 [2-METHOXYESTRADIOL]	54.2
NC(=O)c1cccc(N)c1 [3-AMINOBENZAMIDE]	54.2
CN(C)Cc1c(C(=O)NCCOc2ccc(C(=O)NO)cc2)oc2ccccc12 [ABEXINOSTAT]	54.2
COc1cc(Nc2ncc3c(n2)-c2ccc(Cl)cc2C(c2c(F)cccc2OC)=NC3)ccc1C(=O)O [ALISERTIB]	54.2

SMILES	viability at 10 µM [%]
Cc1csc(-c2nnc(Nc3ccc(Oc4ncccc4-c4ccnc(N)n4)cc3)c3ccccc23)c1 [AMG-900]	54.2
CCCCCCCCCCCCCCCc1cccc(O)c1C(=O)O [ANACARDIC ACID]	54.2
COc1cc(OC)c2c(=O)[nH]c(-c3cc(C)c(OCCO)c(C)c3)nc2c1 [APABETALONE]	54.2
CC(C)[C@H](C(=O)Nc1ccc(C(=O)NO)cc1)c1ccccc1 [AR-42]	54.2
O=C(Nc1c[nH]nc1-c1nc2ccc(CN3CCOCC3)cc2[nH]1)NC1CC1 [AT-9283]	54.2
Nc1ncn([C@@H]2O[C@H](CO)[C@@H](O)[C@H]2O)c(=O)n1 [AZACITIDINE]	54.2
Cc1cc(Nc2nc(N[C@@H](C)c3ncc(F)cn3)ncc2Cl)[nH]n1 [AZD-1480]	54.2
CCS(=O)(=O)N1CC(CC#N)(n2cc(-c3ncnc4[nH]ccc34)cn2)C1 [BARICITINIB]	54.2
O=C(/C=C/c1cccc(S(=O)(=O)Nc2ccccc2)c1)NO [BELINOSTAT]	54.2
Cc1sc2c(c1C)C(c1ccc(Cl)cc1)=N[C@@H](CC(=O)Nc1ccc(O)cc1)c1nnc(C)n1-2 [BIRABRESIB]	54.2
Cc1cn([C@H]2O[C@@H](CO)[C@H](O)[C@H]2F)c(=O)[nH]c1=O [CLEVUDINE]	54.2
C#Cc1cccc(Nc2ncnc3cc(OC)c(OCCCCCCC(=O)NO)cc23)c1 [CUDC-101]	54.2
Cc1nc(N)sc1-c1ccnc(Nc2ccc(N3CCOCC3)cc2)n1 [CYC-116]	54.2
Nc1ccn([C@@H]2O[C@H](CO)[C@@H](O)[C@@H]2O)c(=O)n1 [CYTARABINE]	54.2
O=C(/C=C/c1ccc(CN(CCO)CCc2c[nH]c3ccccc23)cc1)NO [DACINOSTAT]	54.2
CO[C@@H](C(=O)N1Cc2[nH]nc(NC(=O)c3ccc(N4CCN(C)CC4)cc3)c2C1)c1ccccc1 [DANUSERTIB]	54.2
O=c1ccc2ccc(O)c(O)c2o1 [DAPHNETIN]	54.2
CC[C@@](C)(Nc1ccnc(-c2c[nH]c3ncccc23)n1)C(=O)NCC(F)(F)F [DECERNOTINIB]	54.2
Nc1ncn([C@H]2C[C@H](O)[C@@H](CO)O2)c(=O)n1 [DECITABINE]	54.2
CCN(CCO)CCCOc1ccc2c(Nc3cc(CC(=O)Nc4cccc(F)c4)[nH]n3)ncnc2c1 [DEFOSBARASERTIB]	54.2
Cn1cc(-c2ccc(S(=O)(=O)n3ccc(/C=C/C(=O)Nc4ccccc4N)c3)cc2)cn1 [DOMATINOSTAT]	54.2
O=c1oc2c(O)c(O)cc3c(=O)oc4c(O)c(O)cc1c4c23 [ELLAGIC ACID]	54.2
Cc1cc(Nc2cc(N3CCN(C)CC3)nc(/C=C/c3ccccc3)n2)n[nH]1 [ENMD-2076]	54.2
CCN(CC)C(=O)/C(C#N)=C/c1cc(O)c(O)c([N+](=O)[O-])c1 [ENTACAPONE]	54.2
Nc1ccccc1NC(=O)c1ccc(CNC(=O)OCc2cccnc2)cc1 [ENTINOSTAT]	54.2

SMILES	viability at 10 µM [%]
Cc1cnc(Nc2ccc(OCCN3CCCC3)cc2)nc1Nc1cccc(S(=O)(=O)NC(C)(C)C)c1 [FEDRATINIB]	54.2
O=C(Nc1nc2cccc(-c3ccc(CN4CCS(=O)(=O)CC4)cc3)n2n1)C1CC1 [FILGOTINIB]	54.2
COc1ccc(-c2nc(N3CCOCC3)c3sc(CN(C)c4ncc(C(=O)NO)cn4)cc3n2)cn1 [FIMEPINOSTAT]	54.2
Cc1cc(Nc2cc(CN3CCOCC3)c3nc(C)c(Cc4ccc(Cl)cc4F)n3n2)n[nH]1 [GANDOTINIB]	54.2
Nc1ccn([C@@H]2O[C@H](CO)[C@@H](O)C2(F)F)c(=O)n1 [GEMCITABINE]	54.2
CCN(CC)Cc1ccc2cc(COC(=O)Nc3ccc(C(=O)NO)cc3)ccc2c1 [GIVINOSTAT]	54.2
CCn1cc(-c2ccnc3[nH]c(-c4cccc(CN(C)C)c4)cc23)c(-c2ccc(NC(=O)N(C)C)cc2)n1 [GSK-1070916]	54.2
CCS(=O)(=O)Nc1ccc2c(c1)/C(=C(/Nc1ccc(CN3CCCCC3)cc1)c1ccccc1)C(=O)N2 [HESPERADIN]	54.2
Nc1nc(Nc2ccc(S(N)(=O)=O)cc2)nn1C(=O)c1c(F)cccc1F [JNJ-7706621]	54.2
O=C(c1ccc(/C=C/c2n[nH]c3ccccc23)cc1)N1CCNCC1 [KW-2449]	54.2
Nc1nc(OCc2cc(Br)cs2)c2[nH]cnc2n1 [LOMEGUATRIB]	54.2
CO[C@@]12[C@H](COC(N)=O)C3=C(C(=O)C(C)=C(N)C3=O)N1C[C@@H]1N[C@@H]12 [MITOMYCIN]	54.2
NC(=O)c1ncn([C@@H]2O[C@H](CO)[C@@H](O)[C@H]2O)c1O [MIZORIBINE]	54.2
O=C(O)[C@]1(Cc2cccc(Nc3nccs3)n2)CC[C@@H](Oc2cccc(Cl)c2F)CC1 [MK-5108]	54.2
O=C(O)c1ccc(Nc2ncc3c(n2)-c2ccc(Cl)cc2C(c2c(F)cccc2F)=NC3)cc1 [MLN-8054]	54.2
Nc1ccccc1NC(=O)c1ccc(CNc2nccc(-c3cccnc3)n2)cc1 [MOCETINOSTAT]	54.2
CCNC(=O)C[C@@H]1N=C(c2ccc(Cl)cc2)c2cc(OC)ccc2-n2c(C)nnc21 [MOLIBRESIB]	54.2
N#CCNC(=O)c1ccc(-c2ccnc(Nc3ccc(N4CCOCC4)cc3)n2)cc1 [MOMELOTINIB]	54.2
CCCCN(Cc1ccc(C(=O)NO)cc1)C(=O)Nc1ccccc1 [NEXTURASTAT A]	54.2
CCn1cc(C(=O)O)c(=O)c2cc(F)c(N3CCNCC3)cc21 [NORFLOXACIN]	54.2
CNS(=O)(=O)C[C@H]1CC[C@H](N(C)c2[nH]cnc3nccc2-3)CC1 [OCLACITINIB]	54.2
CC1COc2c(N3CCN(C)CC3)c(F)cc3c(=O)c(C(=O)O)cn1c23 (stereo not given) [OFLOXACIN]	54.2
C1=N/C2=N/c3ccc(OCCN4CCCC4)c(c3)COC/C=C/COCc3cccc(c3)C(=C1)N2 [PACRITINIB]	54.2
Cc1[nH]c2ccccc2c1CCNCc1ccc(/C=C/C(=O)NO)cc1 [PANOBINOSTAT]	54.2
CCc1cccc(CC)c1NC(=O)N1Cc2[nH]nc(NC(=O)c3ccc(N4CCN(C)CC4)cc3)c2C1 [PHA-680632]	54.2

Source: ChEMBL document CHEMBL5712922, “Synergistic effects of type I PRMT and PARP inhibitors against non-small cell lung cancer cells” (Clin Epigenetics, 2021)
